{"source": "patent US8445444B2", "about": "“Compositions and methods for diagnosing, treating, and preventing prostate conditions” (Phigenix, Inc., priority 2007, dated 2013)", "format_in_all_cases": "cell-based, human", "key": {"DU145 [1]": {"system": "DU145", "test": "Pan-caspase detection (FAM-VAD-FMK, confocal)", "details": "DU145, 24 h DEFB1 (hBD-1) induction", "description": "(§1) Detection of caspase activity in the prostate cancer cell lines was performed using APO LOGIX™ Carboxyfluorescin Caspase detection kit (Cell Technology, Mountain View, Calif.). Active caspases were detected through the use of a FAM-VAD-FMK inhibitor that irreversibly binds to active caspases. Briefly, DU 145 and PC3 cells (1.5-3×10^5) containing the DEFB1 expression system were plated in 35 mm glass bottom microwell dishes (Matek, Ashland, Mass.) and treated for 24 hours with media only or with media containing PonA as previously described. Next, 10 μl of a 30× working dilution of carboxyfluorescein labeled peptide fluoromethyl ketone (FAM-VAD-FMK) was added to 300 μl of media and added to each 35 mm dish. Cells were then incubated for 1 hour at 37° C. under 5% CO2. […] The fluorescent signal was analyzed using a confocal microscope (Zeiss LSM 5 Pascal) and a 63×DIC oil lens with a Vario 2 RGB Laser Scanning Module.\n(§2) Pan-Caspase Detection: Detection of caspase activity in the prostate cancer cell lines was performed using APO LOGIX™ Carboxyfluorescin Caspase detection kit (Cell Technology, Mountain View, Calif.). Active caspases were detected through the use of a FAM-VAD-FMK inhibitor that irreversibly binds to active caspases. […] The fluorescent signal was analyzed using a confocal microscope (Zeiss LSM 5 Pascal) and a 63×DIC oil lens with a Vario 2 RGB Laser Scanning Module. […]"}, "LNCaP": {"system": "LNCaP", "test": "Pan-caspase detection (FAM-VAD-FMK, confocal)", "details": "24 h DEFB1 (hBD-1) induction"}, "DU145 [2]": {"system": "DU145", "test": "Annexin V-FITC/propidium iodide flow cytometry", "description": "Flow Cytometry: PC3 and DU145 cells co-transfected with the DEFB1 expression system were grown in 60-mm dishes and induced for 12, 24, and 48 hours with 10 μM Ponasterone A. Following each incubation period, the medium was collected from the plates (to retain any detached cells) and combined with PBS used to wash the plates. The remaining attached cells were harvested by trypsinization and combined with the detached cells and PBS. The cells were then pelleted at 4° C. (500×g) for 5 min, washed twice in PBS, and resuspended in 100 ul of 1× Annexin binding buffer (0.1 M Hepes/NaOH at pH 7.4, 1.4 M NaCl, 25 mM CaCl2) containing 5 μl of Annexin V-FITC and 5 μl of PI. The cells were incubated at RT for 15 min in the dark, then diluted with 400 μl of 1× Annexin binding buffer and analyzed by FACscan (Becton Dickinson, San Jose, Calif.). All reactions were performed three times.\nFlow cytometry: PC3 and DU145 cells transfected with the hBD-1 expression system were grown in 60-mm dishes and induced for 12, 24, and 48 h with 10 μM Pon A. Following each incubation period, the medium was collected from the plates (to retain any detached cells) and combined with PBS used to wash the plates. The remaining attached cells were harvested by trypsinization and combined with the detached cells and PBS. The cells were then pelleted at 4° C. (500×g) for 5 min, washed twice in PBS, and resuspended in 100 μl, of 1× Annexin binding buffer (0.1 M Hepes/NaOH at pH 7.4, 1.4 M NaCl, 25 mM CaCl2) containing […] Annexin V-FITC and 5 μl of PI. The cells were incubated at RT for 15 min in the dark, then diluted with 400 μl of 1× Annexin binding buffer and analyzed by FACscan (Becton Dickinson, San Jose, Calif.). All reactions were performed three times."}, "PC3": {"system": "PC3", "test": "Pan-caspase detection (FAM-VAD-FMK, confocal)", "details": "PC3, 24 h DEFB1 induction", "description": "as §1, §2"}}, "note": "“Also recorded” adds a separate entry of the source."}
{"substance": "DEFB1: human beta defensin-1 expressed from the ecdysone inducible pIND/DEFB1 construct, induced with Ponasterone A (DHYNCVSSGGQCLYSACPIFTKIQGTCYRGKAKCCK; UniProt P60022 33-68, looked up)", "values": [{"measurement": "caspase activity", "setting": "DU145 [1]", "value": "revealed caspase activity; also recorded: green staining"}, {"measurement": "caspase activity", "setting": "DU145 [1]; listed as hBD-1", "value": "green staining"}, {"measurement": "caspase activity", "setting": "LNCaP", "value": "No caspase activity was detected; also recorded: no green staining"}, {"measurement": "caspase activity", "setting": "LNCaP; listed as hBD-1", "value": "no green staining"}, {"measurement": "number of apoptotic cells (lower and upper right quadrants)", "setting": "DU145 [2]; DU145, 12 h DEFB1 (hBD-1) induction", "value": 12, "unit": "%"}, {"measurement": "number of apoptotic cells (lower and upper right quadrants)", "setting": "DU145 [2]; DU145, 24 h", "value": 34, "unit": "%"}, {"measurement": "number of apoptotic cells (lower and upper right quadrants)", "setting": "DU145 [2]; DU145, 48 h", "value": 59, "unit": "%"}, {"measurement": "caspase activity", "setting": "PC3", "value": "revealed caspase activity; also recorded: green staining"}]}
